# Reference: patent publication US8728442B2, “Method of controlling the growth of microorganisms by a composition containing isolated or in vitro synthesized nitrosoamides” (Bayer CropScience LP, priority 2009, dated 2014)
# Like-named read-outs stand apart in the source and are kept apart here.
# Experiments:
# [1] = Temperature and pH lability (GC-MS of ethanol eluate); assay type: physicochemical; conditions: high pH (above pH 7)
# Method: As shown at a standard GC/MS injection temperature of 250° C., N-methyl N-nitroso isobutyramide is not detected as it most likely has broken down into other compounds. Therefore, this compound has never been previously identified.
# [2] = system: Bacillus cereus (ATCC 10702); assay: MIC and MBC by Macrodilution Broth Method; assay type: cell-based
# Penicillium expansum = assay: Fungicidal activity, fumigation of Penicillium expansum spore plates in sealed 6 L containers; assay type: cell-based; conditions: 24 h exposure, further 48 h incubation; for MIC: Penicillium expansum, 24 h
# Method: Experiments were conducted to determine the fungicidal activity of several compounds of the invention using Penicillium expansum as the test organism.
# Plates of potato dextrose agar were streaked with a standard culture of Penicillium expansum spores (0.1 ml of a 2×10^5 cfu/ml) and placed in sealed plastic containers (nominal volume 6 liters). The containers (Rubbermaid) were fitted with a small fan (Radio Shack 12VDC) in the lids to ensure good distribution of the test compounds. The plates were exposed to different volumes (2.5 μl, 5 μl, 10 μl, 20 μl, 40 μl, 80 μl, or 120 μl) of standard solutions (1.0 to 4.0 mg/ml) of tested compounds in ethanol, under ambient conditions. After exposing for 24 h, the plates were removed and incubated for a further 48 h, at ambient temperature, and then monitored for growth of the test organism by visual observation.
# The following tables provide summary results of three separate studies to determine the minimum amounts of the compounds needed to produce 100% inhibition of growth of the test organism. Results are expressed as minimal volumes (μl/6 L) and amounts (μg/L) required to produce 100% inhibition.
# [3] = system: Enterococcus faecalis V583; assay: Lubbock biofilm model: relative ratio of bacterium by qPCR
# [4] = system: Pseudomonas aeruginosa PAO1; assay: as above
# [5] = system: Staphylococcus aureus Mu50; assay: as above
# [6] = system: Staphylococcus aureus (MRSA) (ATCC 33591); assay: MIC and MBC of Compound 1 and analogs, macrodilution; conditions: for MIC: 19 h; for MBC: 25 h
# [7] = system: E. coli 0157:H7 (ATCC 43894); assay: MIC and MBC by Macrodilution Broth Method; assay type: cell-based; conditions: ATCC43894, Escherichia coli 0157:H7
# [8] = system: Methicillin Resistant Staphylococcus aureus (MRSA) (ATCC 33591); assay: MIC and MBC by Macrodilution Broth Method; assay type: cell-based
# [9] = system: Enterobacter cloacae (ATCC 13047); assay: MIC and MBC by Macrodilution Broth Method; assay type: cell-based
# [10] = system: Pseudomonas aeruginosa PAO1, Enterococcus faecalis V583 and Staphylococcus aureus Mu50 biofilm; assay: Lubbock chronic wound biofilm model: biofilm formation and dry weight; conditions: biofilm at 24 hours
# [11] = system: Legionella pneumophila (ATCC 33152); assay: microbe, parasite or virus in culture; assay type: cell-based
# [12] = system: Corynebacterium renale (ATCC 10848); assay: MIC and MBC by Macrodilution Broth Method; assay type: cell-based; conditions: ATCC10848, Corynebacterum renale
# [13] = system: Listeria monocytogenes (ATCC 13932); assay: MIC and MBC by Macrodilution Broth Method; assay type: cell-based
# [14] = system: Streptococcus pyogenes (ATCC 10096); assay: MIC and MBC by Macrodilution Broth Method; assay type: cell-based; conditions: ATCC10096, Streptococcus pyrogenes
# [15] = system: Proteus mirabilis (ATCC 3559); assay: MIC and MBC by Macrodilution Broth Method; assay type: cell-based
# [16] = system: Shigella dysenteriae (ATCC 12021); assay: MIC and MBC by Macrodilution Broth Method; assay type: cell-based
# [17] = system: Clostridium sporogenes (ATCC 11437); assay: MIC and MBC by Macrodilution Broth Method; assay type: cell-based; conditions: ATCC11437, read-out: MIC concentration (ppm)
# [18] = system: Klebsiella pneumoniae (ATCC 35657); assay: MIC and MBC by Macrodilution Broth Method; assay type: cell-based
# [19] = Experiment #1, read-out: Amount for 100% inhibition (μg compound/L air)
# [20] = Experiment #2, read-out: Amount for 100% inhibition (μg compound/L air)
# [21] = Experiment #3, read-out: Amount for 100% inhibition (μg compound/L air)
# [22] = Experiment #4, read-out: Amount for 100% inhibition (μg compound/L air)
# [23] = 37° C., 16 to 20 hours, read-out: MIC concentration (ppm)
# [24] = read-out: MBC concentration (ppm)
# [25] = Experiment #6, read-out: Amount for 100% inhibition (μg compound/L air)
# [26] = Experiment #5, read-out: Amount for 100% inhibition (μg compound/L air)
# [27] = read-out: Amount for 100% inhibition (μg compound/L air), Experiment #1
smiles,measurement,setting,value
"CC(C)C(=O)N(C)N=O [Compound 1, N-methyl N-nitrosoisobutyramide]",stability to pH,[1],unstable
same,MIC,"[2]; ATCC10702, 37° C., 16 to 20 hours, read-out: MIC concentration (ppm)",6.25 µg/mL
same,MBC,"[2]; ATCC10702, read-out: MBC concentration (ppm)",12.5 µg/mL
same,MIC,Penicillium expansum; [19],0.0045 µg/mL
same,MIC,Penicillium expansum; [20],0.0043 µg/mL
same,MIC,Penicillium expansum; [21],0.004 µg/mL
same,MIC,Penicillium expansum; [22],0.0084 µg/mL
same,E. faecalis relative ratio in biofilm,"[3]; dilution 1:10, 24 hours",65.5% ± 0.6%
same,E. faecalis relative ratio in biofilm,"[3]; dilution 1:100, 24 hours",39.5% ± 1.0%
same,E. faecalis relative ratio in biofilm,"[3]; dilution 1:1000, 24 hours",34.4% ± 0.2%
same,E. faecalis relative ratio in biofilm,"[3]; dilution 1:10000, 24 hours",32.6% ± 0.3%
same,P. aeruginosa relative ratio in biofilm,"[4]; dilution 1:10, 24 hours",34.3% ± 1.2%
same,P. aeruginosa relative ratio in biofilm,"[4]; dilution 1:100, 24 hours",46.7% ± 8.0%
same,P. aeruginosa relative ratio in biofilm,"[4]; dilution 1:1000, 24 hours",50.5% ± 8.4%
same,P. aeruginosa relative ratio in biofilm,"[4]; dilution 1:10000, 24 hours",20.3% ± 0.9%
same,S. aureus relative ratio in biofilm,"[5]; dilution 1:10, 24 hours",0.27% ± 0.0%
same,S. aureus relative ratio in biofilm,"[5]; dilution 1:100, 24 hours",13.9% ± 0.2%
same,S. aureus relative ratio in biofilm,"[5]; dilution 1:1000, 24 hours",15.2% ± 1.6%
same,S. aureus relative ratio in biofilm,"[5]; dilution 1:10000, 24 hours",47.2% ± 1.2%
same,MIC,[6],6.25 µg/mL
same,MBC,[6],12.5 µg/mL
same,MIC,[7]; [23],12.5 µg/mL
same,MBC,[7]; [24],12.5 µg/mL
same,MBC,[8]; [24],12.5 µg/mL
same,MIC,[8]; read-out: MIC concentration (ppm),6.25 µg/mL
same,MIC,"[9]; ATCC13047, 37° C., 16 to 20 hours, read-out: MIC concentration (ppm)",12.5 µg/mL
same,MBC,"[9]; ATCC13047, read-out: MBC concentration (ppm)",12.5 µg/mL
same,dry weight mg ± SD,[10]; dilution 1:10,21.7 ± 3.2 mg
same,dry weight mg ± SD,[10]; dilution 1:100,59 ± 4.4 mg
same,dry weight mg ± SD,[10]; dilution 1:1000,63 ± 5.3 mg
same,dry weight mg ± SD,[10]; dilution 1:10000,79.7 ± 5.5 mg
same,MBC,"[11]; ATCC33152, read-out: MBC concentration (ppm)",25 µg/mL
same,MIC,"[11]; ATCC33152, read-out: MIC concentration (ppm)",6.25 µg/mL
same,MIC,[12]; [23],6.25 µg/mL
same,MBC,[12]; [24],12.5 µg/mL
same,MIC,"[13]; ATCC13932, 37° C., 16 to 20 hours, read-out: MIC concentration (ppm)",3.13 µg/mL
same,MBC,"[13]; ATCC13932, read-out: MBC concentration (ppm)",12.5 µg/mL
same,MIC,[14]; [23],6.25 µg/mL
same,MBC,[14]; [24],6.25 µg/mL
same,MIC,"[15]; ATCC3559, 37° C., 16 to 20 hours, read-out: MIC concentration (ppm)",6.25 µg/mL
same,MBC,"[15]; ATCC3559, read-out: MBC concentration (ppm)",12.5 µg/mL
same,MBC,"[16]; ATCC12021, read-out: MBC concentration (ppm)",12.5 µg/mL
same,MIC,"[16]; ATCC12021, read-out: MIC concentration (ppm)",6.25 µg/mL
same,MIC,[17],25 µg/mL
same,MIC,"[18]; ATCC35657, 37° C., 16 to 20 hours, read-out: MIC concentration (ppm)",12.5 µg/mL
same,MBC,"[18]; ATCC35657, read-out: MBC concentration (ppm)",12.5 µg/mL
"CCCCCC(=O)N(C)N=O [Compound 2, N-methyl-N-nitrosohexanamide]",MIC,Penicillium expansum; [22],0.0043 µg/mL
"CN(N=O)C(=O)CC1CC1 [Compound 3, 2-cyclopropyl-N-methyl-N-nitrosoacetamide]",MIC,Penicillium expansum; [25],0.005 µg/mL
"C=CC(=O)N(C)N=O [Compound 4, N-methyl-N-nitrosoacrylamide]",MIC,Penicillium expansum; [26],0.0011 µg/mL
"CN(N=O)C(=O)C1CCC1 [Compound 5, N-methyl-N-nitrosocyclobutanecarboxamide]",MIC,Penicillium expansum; [26],0.0012 µg/mL
"COCC(=O)N(C)N=O [Compound 6, 2-methoxy-N-methyl-N-nitrosoacetamide]",MIC,Penicillium expansum; [25],0.0022 µg/mL
"CN(N=O)C(=O)C1CC1 [Compound 7, N-methyl-N-nitrosocyclopropanecarboxamide]",MIC,Penicillium expansum; [19],0.0101 µg/mL
same,MIC,Penicillium expansum; [20],0.01 µg/mL
same,MIC,Penicillium expansum; [21],0.0082 µg/mL
"C/C=C/C(=O)N(C)N=O [Compound 8, (2E)-N-methyl-N-nitrosobut-2-enamide]",MIC,Penicillium expansum; [26],0.0075 µg/mL
"CCCCCCC(=O)N(C)N=O [Compound 9, N-methyl-N-nitrosoheptanamide]",MIC,Penicillium expansum; [22],0.0075 µg/mL
"CC(C)C(=O)N(C)N=O [Compound 10, N-methyl-N-nitrosisopropanamide]",Amount for 100% inhibition (μg compound/L air),Penicillium expansum; Experiment #4,>14.4 μg compound/L air
"CCN(N=O)C(=O)C(C)C [Compound 11, N-ethyl-N-nitrosoisobutyramide]",MIC,Penicillium expansum; [25],> 0.0147 µg/mL
"CCCN(N=O)C(C)=O [Compound 12, N-nitroso-N-propylacetamide]",MIC,Penicillium expansum; [27],0.0252 µg/mL
"CCCC(=O)N(C)N=O [Compound 13, N-methyl-N-nitrosobutyramide]",MIC,Penicillium expansum; [19],0.0092 µg/mL
same,MIC,Penicillium expansum; [20],0.0071 µg/mL
same,MIC,Penicillium expansum; [21],0.0075 µg/mL
"CC(=O)N(N=O)C1CC1 [Compound 14, N-cyclopropyl-N-nitrosoacetamide]",MIC,Penicillium expansum; [19],0.0278 µg/mL
"CC(=O)N(N=O)C(C)C [Compound 16, N-isopropyl-N-nitrosoacetamide]",MIC,Penicillium expansum; [20],> 0.0806 µg/mL
same,MIC,Penicillium expansum; [27],0.025 µg/mL
"O=NN1CCCCC1=O [Compound 17, 1-nitrosopiperidine-2-one]",MIC,Penicillium expansum; [21],> 0.0036 µg/mL
"O=NN1CCCC1=O [Compound 18, 1-nitrosopyrrolidin-2-one]",MIC,Penicillium expansum; [20],> 0.084 µg/mL
same,MIC,Penicillium expansum; [25],> 0.0163 µg/mL
"CC(C)CC(=O)N(C)N=O [Compound 19, N-3-dimethyl-N-nitrosobutanamide]",Amount for 100% inhibition (μg compound/L air),Penicillium expansum; Experiment #5,>15.5 μg compound/L air
"CCC(=O)N(C)N=O [Compound 20, N-methyl-N-nitrosopropanamide]",MIC,Penicillium expansum; [22],0.0075 µg/mL
"CCCCC(=O)N(C)N=O [Compound 21, N-methyl-N-nitrosopentanamide]",MIC,Penicillium expansum; [22],0.0163 µg/mL
"CCC(C)C(=O)N(C)N=O (stereo not drawn) [Compound 22, N,2-dimethyl-N-nitrosobutanamide]",MIC,Penicillium expansum; [26],> 0.0152 µg/mL
COCC(=O)N(C)N=O [drawing 50],MIC,[6],25 µg/mL
same,MBC,[6],> 50 µg/mL
C=CC(=O)N(C)N=O [drawing 51],MIC,[6],> 50 µg/mL
same,MBC,[6],> 50 µg/mL
C/C=C/C(=O)N(C)N=O [drawing 52],MIC,[6],6.25 µg/mL
same,MBC,[6],25 µg/mL
CCC(=O)N(C)N=O [drawing 53],MIC,[6],12.5 µg/mL
same,MBC,[6],25 µg/mL
CCCCCCC(=O)N(C)N=O [drawing 54],MIC,[6],6.25 µg/mL
same,MBC,[6],25 µg/mL
CC(C)CC(=O)N(C)N=O [drawing 55],MIC,[6],0.78 µg/mL
same,MBC,[6],25 µg/mL
